Data from US20220323521A1, “Compositions and Uses for Engineered Therapeutic Microbes and Associated Receptors” (The Brigham and Women`s Hospital, Inc., priority 2019, published 2022).
Where a chain is given by its changes, count along the chain named. Numbers in names are those of the source. One block for each molecule: values may come before it.

Assays:
human P2Y2 receptor [1] = experiment: Flow cytometry evaluation of response to ATP and UTP (pFUS1-mCherry mating pathway reporter in yeast strain BS016); type: cell-based; details: for Follow-up Test Results: response/sensitivity to ATP versus WT, post-sorting follow-up; for ATP Linear Range μM / ATP Max Response (±SE) / ATP Dynamic Range / ATP Linear Range: ligand eATP; for ATP Max Response (±SE) / UTP Max Response (±SE): normalized to maximum mating pathway activation by WT human P2Y2 receptor with eATP; for ATP Dynamic Range / UTP Dynamic Range: ratio of highest fluorescence versus 10% signal saturation; for UTP Max Response (±SE): unit assumed; for signaling in the absence of agonist (constitutive activity): no agonist
Protocol: (§1) Flow cytometry evaluation of response to ATP and UTP. Yeast strain BS016 transformed with a human P2Y2 gene in the pRS316 pTDH3 vector was grown in SC-URA liquid media overnight. The same strain transformed with a plasmid not containing a P2Y2 sequence (Vector) was used as a negative control. Cells were diluted to OD600 0.05 in 600 μL SC-URA containing ATP (0-25.6 mM; pH 7.0, Bio Basic) or UTP (0-3.2 mM; pH 7.0, Sigma-Aldrich) and incubated for 6 hours at 30° C. Cells were then treated with cycloheximide to a final concentration of 10 μg/mL. The mCherry signal of at least 10,000 cells was measured for each sample with a Miltenyi Biotec MACSQuant VYB. The mean mCherry fluorescence was determined using FlowJo. For dose-response assays, data was fitted with the “log(agonist) vs. response—Variable slope (four parameters)” model in Prism (GraphPad). After subtracting the mCherry fluorescence signal of the Vector control, fluorescence values were normalized to the wild-type P2Y2 control used in the same experiment, to allow comparisons between experiments performed on different days.
(§2) Directed evolution of human P2Y2 receptor. Error-prone PCR mutagenesis was performed using the Agilent GeneMorph II Random Mutagenesis Kit with yeast codon-optimized human P2Y2 as a template, using previously described methods (104). 150 ng of template DNA and 30 cycles achieved the desired mutation rate of ˜3 mutations per P2Y2 gene, determined by sequencing 12 randomly selected plasmids (Table 2). The random mutants were inserted into pRS316 pTDH3 using AarI-based cloning and transformed into NEB 5-alpha competent E. coli cells (New England Biolabs) generating >15,000 individual colonies. Cells were scraped off agar plates, mixed together, and plasmid DNA was extracted (QIAQuick Spin Miniprep Kit, Qiagen) to create the final plasmid library. The library was transformed into yeast strain BS016 using a high-efficiency lithium acetate-based method (105), yielding at least 10-fold the number of colonies as the total library size, so that each mutant would be screened multiple times. Transformed cells were incubated overnight, then diluted to OD600 0.05 into fresh 100 mL SC-URA liquid media containing 100 μM ATP (pH 7.0, Biobasic), and incubated for either 18 or 6 hours at 30° C. (FIG. 8). After brief sonication, 10^6-10^7 cells were gated by side and forward scatter and sorted for the highest ˜1% of mCherry signal using a BD Influx cell sorter (106). A total of 174 yeast colonies recovered from various sorting experiments were individually screened for their response to 100 μM UTP, 100 μM ATP, or with no ligand, after a 6-hour incubation. Plasmids were isolated from selected colonies by first incubating with zymolase (BioShop Canada) then extracting plasmid DNA (QIAQuick Spin Miniprep Kit, Qiagen). Plasmid DNA was amplified using NEB 5-alpha competent E. coli cells (New England Biolabs), the plasmid DNA was sequenced, and fresh BS016 yeast cells were transformed for dose-response experiments.
(§3) Maximum response values were normalized to the maximum mating pathway activation provided by the WT human P2Y2 receptor incubated with eATP. Dynamic range was the ratio of the highest fluorescence obtained in the presence of the indicated ligand versus 10% signal saturation. Linear range was the series of ligand concentrations for which a change in signal can be detected. The minimum limit of the linear range was estimated as the ligand concentration corresponding to 10% signal saturation. Data represents the mean of six colonies for eATP, three colonies for eUTP.

human P2Y2 receptor [2] = target: T1, human P2Y2 receptor (Homo sapiens, UniProt P41231); experiment: as above; type: cell-based; details: for EC50: agonist on WT human P2Y2 in Gpa1-Gαi3 pFUS1-mCherry strain
T1 construct: expressed in transfected cells; host or cells: Saccharomyces cerevisiae strain BS016 (Gpa1-Gαi3 chimera, pFUS1-mCherry reporter), plasmid pRS316 pTDH3
T1 sequence (P41231 whole entry): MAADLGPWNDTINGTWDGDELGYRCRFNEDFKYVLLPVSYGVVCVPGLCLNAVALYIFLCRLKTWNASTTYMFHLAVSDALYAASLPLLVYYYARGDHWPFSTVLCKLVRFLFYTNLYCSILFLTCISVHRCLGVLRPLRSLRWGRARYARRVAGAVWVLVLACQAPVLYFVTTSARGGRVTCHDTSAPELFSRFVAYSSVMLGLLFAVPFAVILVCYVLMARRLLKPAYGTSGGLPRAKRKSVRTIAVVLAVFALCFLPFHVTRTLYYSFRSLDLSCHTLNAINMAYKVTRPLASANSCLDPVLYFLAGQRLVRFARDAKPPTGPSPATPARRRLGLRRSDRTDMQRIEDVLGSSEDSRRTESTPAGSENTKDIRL
Protocol: as §1, §2, §3

[3] = ligand concentrations for which a change in signal can be detected
[4] = ligand eUTP, ligand concentrations for which a change in signal can be detected

Follow-up Test Results (human P2Y2 receptor [1]): No different than WT, not selected for
Molecule: 6R1-2: human P2Y2 receptor mutant I214T [Mutant 6R1-2]

Follow-up Test Results (human P2Y2 receptor [1]): No different than WT, not selected for
Molecule: 18R2-2: human P2Y2 receptor mutant L112S A176V [Mutant 18R2-2]

ATP Linear Range μM (human P2Y2 receptor [1]; [3]): 4-4,966 μM
ATP Max Response (±SE) (human P2Y2 receptor [1]): 122%
ATP Dynamic Range (human P2Y2 receptor [1]): 9
UTP Linear Range (human P2Y2 receptor [1]; [4]): 0.05 to 22 µM
UTP Max Response (±SE) (human P2Y2 receptor [1]; ligand eUTP): 101%
UTP Dynamic Range (human P2Y2 receptor [1]; ligand eUTP): 6
Molecule: H1-2: human P2Y2 receptor mutant F58L [Mutant H1-2]

ATP Linear Range μM (human P2Y2 receptor [1]; [3]): 4-3,945 μM
ATP Max Response (±SE) (human P2Y2 receptor [1]): 152%
ATP Dynamic Range (human P2Y2 receptor [1]): 10
UTP Linear Range (human P2Y2 receptor [1]; [4]): 0.4 to 550 µM
UTP Max Response (±SE) (human P2Y2 receptor [1]; ligand eUTP): 122%
UTP Dynamic Range (human P2Y2 receptor [1]; ligand eUTP): 8
Molecule: H1-3: human P2Y2 receptor mutant F58I [Mutant H1-3]

ATP Linear Range (human P2Y2 receptor [1]; [3]): 0.3 to 18 µM
ATP Max Response (±SE) (human P2Y2 receptor [1]): 181%
ATP Dynamic Range (human P2Y2 receptor [1]): 3
UTP Linear Range (human P2Y2 receptor [1]; [4]): 0.02 to 3.1 µM
UTP Max Response (±SE) (human P2Y2 receptor [1]; ligand eUTP): 199%
UTP Dynamic Range (human P2Y2 receptor [1]; ligand eUTP): 3
Molecule: H7-1: human P2Y2 receptor mutant K240N F307S [Mutant H7-1]
signaling in the absence of agonist (constitutive activity) (human P2Y2 receptor [1]): increased responsiveness and signaling in the absence of agonist (constitutive activity)

ATP Linear Range μM (human P2Y2 receptor [1]; [3]): 3-2,243 μM
ATP Max Response (±SE) (human P2Y2 receptor [1]): 165%
ATP Dynamic Range (human P2Y2 receptor [1]): 9
UTP Linear Range (human P2Y2 receptor [1]; [4]): 0.9 to 169 µM
UTP Max Response (±SE) (human P2Y2 receptor [1]; ligand eUTP): 143%
UTP Dynamic Range (human P2Y2 receptor [1]; ligand eUTP): 8
Molecule: TM-2: human P2Y2 receptor mutant L59I C119S

ATP Linear Range (human P2Y2 receptor [1]; [3]): 0.3 to 23 µM
ATP Max Response (±SE) (human P2Y2 receptor [1]): 90%
ATP Dynamic Range (human P2Y2 receptor [1]): 2
UTP Linear Range (human P2Y2 receptor [1]; [4]): 0.01 to 6 µM
UTP Max Response (±SE) (human P2Y2 receptor [1]; ligand eUTP): 84%
UTP Dynamic Range (human P2Y2 receptor [1]; ligand eUTP): 3
B1: H7-2: human P2Y2 receptor mutant A76T A229V F307S (protein, UniProt P41231 1-377, looked up, variant A76T A229V F307S)
P2Y purinoceptor 2: MAADLGPWNDTINGTWDGDELGYRCRFNEDFKYVLLPVSYGVVCVPGLCLNAVALYIFLCRLKTWNASTTYMFHLTVSDALYAASLPLLVYYYARGDHWPFSTVLCKLVRFLFYTNLYCSILFLTCISVHRCLGVLRPLRSLRWGRARYARRVAGAVWVLVLACQAPVLYFVTTSARGGRVTCHDTSAPELFSRFVAYSSVMLGLLFAVPFAVILVCYVLMARRLLKPVYGTSGGLPRAKRKSVRTIAVVLAVFALCFLPFHVTRTLYYSFRSLDLSCHTLNAINMAYKVTRPLASANSCLDPVLYSLAGQRLVRFARDAKPPTGPSPATPARRRLGLRRSDRTDMQRIEDVLGSSEDSRRTESTPAGSENTKDIRL
signaling in the absence of agonist (constitutive activity) (human P2Y2 receptor [1]): increased responsiveness and signaling in the absence of agonist (constitutive activity)

ATP Linear Range (human P2Y2 receptor [1]; [3]): 0.5 to 184 µM
ATP Max Response (±SE) (human P2Y2 receptor [1]): 149%
ATP Dynamic Range (human P2Y2 receptor [1]): 5
UTP Linear Range (human P2Y2 receptor [1]; [4]): 0.05 to 12 µM
UTP Max Response (±SE) (human P2Y2 receptor [1]; ligand eUTP): 128%
UTP Dynamic Range (human P2Y2 receptor [1]; ligand eUTP): 4
B2: H1-1: human P2Y2 receptor mutant F58C C60Y G310A (protein, UniProt P41231 1-377, looked up, variant F58C C60Y G310A)
P2Y purinoceptor 2: B1 P2Y purinoceptor 2 with F58C, C60Y, T76A, V229A, S307F, G310A

The remaining lines, values behind:

Molecule: 18R2-23: human P2Y2 receptor mutant V250A [Mutant 18R2-23]
Follow-up Test Results (human P2Y2 receptor [1]): No different than WT, not selected for

Molecule: Nc1ncnc2c1ncn2[C@@H]1O[C@H](COP(=O)(O)OP(=O)(O)OP(=O)(O)O)[C@@H](O)[C@H]1O [eATP, adenosine triphosphate, reference compound]
EC50 (human P2Y2 receptor [2]): 1860 µM

Molecule: O=c1ccn([C@@H]2O[C@H](COP(=O)(O)OP(=O)(O)OP(=O)(O)O)[C@@H](O)[C@H]2O)c(=O)[nH]1 [eUTP, uridine triphosphate, reference compound]
EC50 (human P2Y2 receptor [2]): 123 µM

Molecule: H1-4: human P2Y2 receptor mutant F58L S359P [Mutant H1-4]
ATP Linear Range μM (human P2Y2 receptor [1]; [3]): 5-3,882 μM
ATP Max Response (±SE) (human P2Y2 receptor [1]): 110%
ATP Dynamic Range (human P2Y2 receptor [1]): 9
UTP Linear Range (human P2Y2 receptor [1]; [4]): 0.2 to 61 µM
UTP Max Response (±SE) (human P2Y2 receptor [1]; ligand eUTP): 96%
UTP Dynamic Range (human P2Y2 receptor [1]; ligand eUTP): 7

Molecule: TM-3: human P2Y2 receptor mutant N116S
ATP Linear Range (human P2Y2 receptor [1]; [3]): 0.9 to 284 µM
ATP Max Response (±SE) (human P2Y2 receptor [1]): 110%
ATP Dynamic Range (human P2Y2 receptor [1]): 5
UTP Linear Range (human P2Y2 receptor [1]; [4]): 0.04 to 63 µM
UTP Max Response (±SE) (human P2Y2 receptor [1]; ligand eUTP): 86%
UTP Dynamic Range (human P2Y2 receptor [1]; ligand eUTP): 5
signaling in the absence of agonist (constitutive activity) (human P2Y2 receptor [1]): increased responsiveness and signaling in the absence of agonist (constitutive activity)

Molecule: TM-4: human P2Y2 receptor mutant L162I Q165H
ATP Linear Range μM (human P2Y2 receptor [1]; [3]): 0.5-8,950^ μM
ATP Max Response (±SE) (human P2Y2 receptor [1]): 137%
ATP Dynamic Range (human P2Y2 receptor [1]): 10
UTP Linear Range (human P2Y2 receptor [1]; [4]): 0.07 to 31 µM
UTP Max Response (±SE) (human P2Y2 receptor [1]; ligand eUTP): 69%
UTP Dynamic Range (human P2Y2 receptor [1]; ligand eUTP): 7

Molecule: WT: wild-type human P2Y2 receptor (NP_002555.4), yeast codon-optimized [reference compound]
response to 100 μM eATP (mCherry expression) (human P2Y2 receptor [2]; 100 μM eATP): weak response
ATP Linear Range μM (human P2Y2 receptor [1]; [3]): 113-25,600 μM
ATP Max Response (±SE) (human P2Y2 receptor [1]): 100%
ATP Dynamic Range (human P2Y2 receptor [1]): 8
UTP Linear Range μM (human P2Y2 receptor [1]; [4]): 4-1,374 μM
UTP Max Response (±SE) (human P2Y2 receptor [1]; ligand eUTP): 98%
UTP Dynamic Range (human P2Y2 receptor [1]; ligand eUTP): 9

B3: 18R2-18: human P2Y2 receptor mutant W16R V90A A295V (protein, UniProt P41231 1-377, looked up, variant W16R V90A A295V)
P2Y purinoceptor 2: B1 P2Y purinoceptor 2 with W16R, T76A, V90A, V229A, A295V, S307F
Follow-up Test Results (human P2Y2 receptor [1]): inconsistent results
